ChEMBL document CHEMBL1201862, “PubChem BioAssay data set” (2004)
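Assay format: 96-well plates, 48-hour exposure. GI50: concentration for 50% inhibition of growth.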 Active and inactive are the calls of the source. Rule as the data show it: active = GI50 up to about 1.1 µM and inactive = higher.

Columns and labels:
Assay in all cases: inhibition of tumour cell growth, NCI panel, 48 h
[1] = system: 786-0
[2] = system: A498
[3] = system: HCT-116
[4] = system: HL-60
[5] = system: HOP-92
[6] = system: K562
[7] = system: MDA-MB-435
[8] = system: NCI-H460
[9] = system: NCI/ADR-RES
[10] = system: OVCAR-4
[11] = system: OVCAR-5
[12] = system: PC-3
[13] = system: RXF 393
[14] = system: SF-295
[15] = system: SK-MEL-28
[16] = system: SK-MEL-5
[17] = system: SN12C
[18] = system: SR
[19] = system: T47D
[20] = system: HCC 2998

SMILES | GI50 [1] | GI50 [2] | GI50 [3] | GI50 [4] | GI50 [5] | GI50 [6] | GI50 [7] | GI50 [8] | GI50 [9] | GI50 [10] | GI50 [11] | GI50 [12] | GI50 [13] | GI50 [14] | GI50 [15] | GI50 [16] | GI50 [17] | GI50 [18] | GI50 [19] | GI50 [20]
CC(C)c1nc2c(Cl)c3ncccc3cc2[nH]c1=O | > 100 µM (inactive) | > 100 µM (inactive) | > 100 µM (inactive) | 50.4 µM (inactive) | > 100 µM (inactive) | > 100 µM (inactive) | > 100 µM (inactive) | 88.1 µM (inactive) | 37.8 µM (inactive) | 67.8 µM (inactive) | > 100 µM (inactive) | > 100 µM (inactive) | > 100 µM (inactive) | > 100 µM (inactive) | > 100 µM (inactive) | 73.6 µM (inactive) | > 100 µM (inactive) | > 100 µM (inactive) | 70.5 µM (inactive) | 
c1csc(-c2cc(-c3ccsc3)c(-c3cccs3)s2)c1 | > 100 µM (inactive) | > 100 µM (inactive) | 29.8 µM (inactive) |  | 32.2 µM (inactive) | 69.8 µM (inactive) | 39.4 µM (inactive) | 43.5 µM (inactive) | > 100 µM (inactive) | > 100 µM (inactive) | > 100 µM (inactive) | > 100 µM (inactive) | 49.8 µM (inactive) | > 100 µM (inactive) | 41.3 µM (inactive) | 53.6 µM (inactive) | > 100 µM (inactive) | 36.9 µM (inactive) | 2.7 µM (inactive) | 55.8 µM (inactive)
COC(=O)[C@@H](NC(=O)c1ccc(CNC(=O)/C(C)=C/c2ccccc2)cc1)C(C)C | > 100 µM (inactive) | > 100 µM (inactive) | > 100 µM (inactive) |  | > 100 µM (inactive) | > 100 µM (inactive) | 70 µM (inactive) | 65 µM (inactive) | > 100 µM (inactive) | 56.8 µM (inactive) | > 100 µM (inactive) | > 100 µM (inactive) | 79.6 µM (inactive) | > 100 µM (inactive) | 40.8 µM (inactive) | 68.4 µM (inactive) | > 100 µM (inactive) | > 100 µM (inactive) | 56.2 µM (inactive) | 26.9 µM (inactive)
O=C1CSC2(CC(/C=C/c3cccc(Br)c3)=NN2c2cccc(S(=O)(=O)O)c2)N1c1nc2ccccc2s1 (configuration not stated) | > 100 µM (inactive) | > 100 µM (inactive) | > 100 µM (inactive) |  | > 49.7 µM (inactive) | 42.8 µM (inactive) | 62.4 µM (inactive) | > 100 µM (inactive) | > 100 µM (inactive) | > 77.8 µM (inactive) | > 100 µM (inactive) | > 100 µM (inactive) | > 100 µM (inactive) | > 100 µM (inactive) | > 100 µM (inactive) | > 100 µM (inactive) | > 100 µM (inactive) | 41.5 µM (inactive) | 38.5 µM (inactive) | > 100 µM (inactive)
Cn1c(=O)c2c(-c3ccccc3)onc2n(C)c1=O | 29 µM (inactive) | 64.1 µM (inactive) | 27.4 µM (inactive) |  | 42 µM (inactive) | 30.3 µM (inactive) | 44.5 µM (inactive) | 35.9 µM (inactive) | 27.5 µM (inactive) | 43.2 µM (inactive) | 31 µM (inactive) | 15 µM (inactive) | 21.3 µM (inactive) | 40.7 µM (inactive) |  | 30.7 µM (inactive) | 30.4 µM (inactive) | 36.6 µM (inactive) | 23.8 µM (inactive) | 32.7 µM (inactive)
CC(C)[Si](OC/C(=C/COC(C)(C)C)[C@H]1CC=C(C(=O)c2ccccc2N2CN(C)C(=O)N(C)C2)C1)(C(C)C)C(C)C | 6.61 µM (inactive) | 19.7 µM (inactive) | 2.3 µM (inactive) |  | 9.73 µM (inactive) | 1.08 µM (active) | 6.04 µM (inactive) | 12.6 µM (inactive) | 16.4 µM (inactive) | 13.8 µM (inactive) | 14.2 µM (inactive) | 5.6 µM (inactive) | 4.02 µM (inactive) | 12.9 µM (inactive) | 6.22 µM (inactive) | 9.95 µM (inactive) | 12.4 µM (inactive) | 2.14 µM (inactive) | 7.73 µM (inactive) | 12.4 µM (inactive)
Cc1cc(NS(=O)(=O)c2ccc(NC(=O)c3ccc4nc5ccccc5c(Nc5ccc(S(=O)(=O)Nc6cc(C)on6)cc5)c4c3)cc2)no1 | > 50 µM (inactive) |  | > 50 µM (inactive) | > 50 µM (inactive) | > 50 µM (inactive) | > 50 µM (inactive) | > 50 µM (inactive) | > 50 µM (inactive) | > 50 µM (inactive) | > 50 µM (inactive) | > 50 µM (inactive) | > 50 µM (inactive) | > 50 µM (inactive) | > 50 µM (inactive) | > 50 µM (inactive) | > 50 µM (inactive) | > 50 µM (inactive) | > 50 µM (inactive) | > 50 µM (inactive) | > 50 µM (inactive)
